Several values for one entry are separate records, joined by “and”; a condition that tells them apart may be missing. Equal values may be shown once.

Data set [1] relates to pSARS-CoV-2. Format: cell-based, SARS-CoV-2.
Data set [2] has as its system 293 T-ACE2 cells.
Data set [3] concerns the target SARS-CoV-2 3CL protease (Severe acute respiratory syndrome coronavirus 2, UniProt P0DTD1). Put plainly: biochemical. To be noted: for inhibition at 100 µM: read-out: inhibition rate against 3CL (%).
The test system of data set [4] is SARS 3CL protease. The settings on record: read-out: IC50 on SARS 3CL protease activity; cited from earlier work.

By EC50 is commonly meant the concentration that produces a half-maximal response. A lower EC50 goes with a more potent agent. As usually defined, the CC50 is the concentration at which the toxic effect on the cells reaches its halfway point. On to “2′-Oxopethyl-3β-O-[2, 4-di-O-(α-l-rhamnopyranosyl)-β-d-glucopyranosyl]-lup-20 (29)-ene-28-oic acid [BA-13]”, for which, in data set [1], a half-maximal response (EC50) required 8.61 ± 0.47 µM and the SI came out at 4.21. Besides, it took 36.2 ± 0.75 µM to reach half-maximal cytotoxicity in data set [2] (CC50).
By inhibition is commonly meant the change of the read-out against control, counted positive when it falls. In general, IC50 refers to the point on the concentration scale where inhibition reaches its midpoint. Consider `C=C(C)[C@@H]1CC[C@]2(C(=O)O)CC[C@]3(C)[C@H](CC[C@@H]4[C@@]5(C)CC[C@H](O)C(C)(C)[C@@H]5CC[C@]43C)[C@@H]12` [BA, Betulinic acid], for which, in data set [3], the “inhibition rate against 3CL (%)” value worked out at 51.4% and the inhibition at 100 µM is 72.2%. The IC50 in data set [4] was 10 µM.
Take `C=C(C)[C@@H]1CC[C@]2(C(=O)OCC)CC[C@]3(C)[C@H](CC[C@@H]4[C@@]5(C)CC[C@H](O[C@@H]6O[C@H](CO)[C@@H](O[C@@H]7O[C@@H](C)[C@H](O)[C@@H](O)[C@H]7O)[C@H](O)[C@H]6O[C@@H]6O[C@@H](C)[C@H](O)[C@@H](O)[C@H]6O)C(C)(C)[C@@H]5CC[C@]43C)[C@@H]12` [BA-3, Ethyl-3β-O-[2,4-di-O-(α-l-rhamnopyranosyl)-β-d-glucopyranosyl]-lup-20 (29)-ene-28-oic acid]: in data set [1], a half-maximal response (EC50) required 3.7 ± 0.72 µM and the SI turned out to be 9.76. The compound also gave a CC50 in data set [2] of 36.1 ± 1.05 µM.
Regarding `C=C(C)[C@@H]1CC[C@]2(C(=O)OCCCC)CC[C@]3(C)[C@H](CC[C@@H]4[C@@]5(C)CC[C@H](O[C@@H]6O[C@H](CO)[C@@H](O[C@@H]7O[C@@H](C)[C@H](O)[C@@H](O)[C@H]7O)[C@H](O)[C@H]6O[C@@H]6O[C@@H](C)[C@H](O)[C@@H](O)[C@H]6O)C(C)(C)[C@@H]5CC[C@]43C)[C@@H]12` [BA-5, n-Butyl-3β-O-[2,4-di-O-(α-l-rhamnopyranosyl)-β-d-glucopyranosyl]-lup-20 (29)-ene-28-oic acid], in data set [1], the EC50 was 6.42 ± 0.2 µM and the SI turned out to be 11.91. The compound further gave a CC50 in data set [2] of 76.5 ± 1.23 µM.
In the case of `C=C(C)[C@@H]1CC[C@]2(C(=O)OCCCCC)CC[C@]3(C)[C@H](CC[C@@H]4[C@@]5(C)CC[C@H](O[C@@H]6O[C@H](CO)[C@@H](O[C@@H]7O[C@@H](C)[C@H](O)[C@@H](O)[C@H]7O)[C@H](O)[C@H]6O[C@@H]6O[C@@H](C)[C@H](O)[C@@H](O)[C@H]6O)C(C)(C)[C@@H]5CC[C@]43C)[C@@H]12` [BA-6, n-Pentyl-3β-O-[2,4-di-O-(α-l-rhamnopyranosyl)-β-d-glucopyranosyl]-lup-20 (29)-ene-28-oic acid], in data set [1], the EC50 was found to be 5.37 ± 0.37 µM and the SI turned out to be 4.54. In data set [2], this compound displayed a half-maximal cytotoxic concentration (CC50) of 24.4 ± 0.33 µM and a fold increased toxic of 1.7 fold.
On the same counts, the results for `C=C(C)[C@@H]1CC[C@]2(C(=O)OCCCCCC)CC[C@]3(C)[C@H](CC[C@@H]4[C@@]5(C)CC[C@H](O[C@@H]6O[C@H](CO)[C@@H](O[C@@H]7O[C@@H](C)[C@H](O)[C@@H](O)[C@H]7O)[C@H](O)[C@H]6O[C@@H]6O[C@@H](C)[C@H](O)[C@@H](O)[C@H]6O)C(C)(C)[C@@H]5CC[C@]43C)[C@@H]12` [BA-7, n-Hexyl-3β-O-[2,4-di-O-(α-l-rhamnopyranosyl)-β-d-glucopyranosyl]-lup-20 (29)-ene-28-oic acid] are 5.54 ± 0.81 µM, 2.96, 16.4 ± 0.19 µM and 2.5 fold.
In data set [1], `C=C(C)[C@@H]1CC[C@]2(C(=O)OC(C)C)CC[C@]3(C)[C@H](CC[C@@H]4[C@@]5(C)CC[C@H](O[C@@H]6O[C@H](CO)[C@@H](O[C@@H]7O[C@@H](C)[C@H](O)[C@@H](O)[C@H]7O)[C@H](O)[C@H]6O[C@@H]6O[C@@H](C)[C@H](O)[C@@H](O)[C@H]6O)C(C)(C)[C@@H]5CC[C@]43C)[C@@H]12` [BA-8, Isopropyl-3β-O-[2,4-di-O-(α-l-rhamnopyranosyl)-β-d-glucopyranosyl]-lup-20 (29)-ene-28-oic acid] yielded an EC50 of 6.05 ± 0.38 µM and an SI of 7.81. The compound also returned a CC50 in data set [2] of 47.2 ± 0.63 µM.
As to `C=C(C)C1CCC2(C(=O)OC3CCCCC3)CCC3(C)C(CCC4C5(C)CCC(OC6OC(CO)C(OC7OC(C)C(O)C(O)C7O)C(O)C6OC6OC(C)C(O)C(O)C6O)C(C)(C)C5CCC43C)C12` (stereo not drawn) [BA-9, Cyclohexyl-3β-O-[2,4-di-O-(α-l-rhamnopyranosyl)-β-d-glucopyranosyl]-lup-20 (29)-ene-28-oic acid], in data set [1], the EC50 was over 20 µM and the “activity against pSARS-CoV-2” value is given as “entirely lost”.
In data set [1], `C=C(C)[C@@H]1CC[C@]2(C(=O)OCCCl)CC[C@]3(C)[C@H](CC[C@@H]4[C@@]5(C)CC[C@H](O[C@@H]6O[C@H](CO)[C@@H](O[C@@H]7O[C@@H](C)[C@H](O)[C@@H](O)[C@H]7O)[C@H](O)[C@H]6O[C@@H]6O[C@@H](C)[C@H](O)[C@@H](O)[C@H]6O)C(C)(C)[C@@H]5CC[C@]43C)[C@@H]12` [BA-10, 2′-Chloroethyl-3β-O-[2,4-di-O-(α-l-rhamnopyranosyl)-β-d-glucopyranosyl]-lup-20 (29)-ene-28-oic acid] returned an EC50 of 7.67 ± 0.31 µM, an SI of 6.75 and a fold decreased potency of 2.4 fold. The compound further came in with a CC50 in data set [2] of 51.8 ± 1.35 µM.
With `C=C(C)[C@@H]1CC[C@]2(C(=O)OCCBr)CC[C@]3(C)[C@H](CC[C@@H]4[C@@]5(C)CC[C@H](O[C@@H]6O[C@H](CO)[C@@H](O[C@@H]7O[C@@H](C)[C@H](O)[C@@H](O)[C@H]7O)[C@H](O)[C@H]6O[C@@H]6O[C@@H](C)[C@H](O)[C@@H](O)[C@H]6O)C(C)(C)[C@@H]5CC[C@]43C)[C@@H]12` [BA-11, 2′-Bromoethyl 3β-O-[2,4-di-O-(α-l-rhamnopyranosyl)-β-d-glucopyranosyl]-lup-20 (29)-ene-28-oic acid], in data set [1], the midpoint of the response, the EC50, lay at 9.03 ± 0.56 µM and the SI amounted to 5.11. The same compound showed a CC50 in data set [2] of 46.12 ± 0.31 µM.
As to `C=C(C)C1CCC2(C(=O)OCCO)CCC3(C)C(CCC4C5(C)CCC(OC6OC(CO)C(OC7OC(C)C(O)C(O)C7O)C(O)C6OC6OC(C)C(O)C(O)C6O)C(C)(C)C5CCC43C)C12` (stereo not drawn) [BA-12, 2′-Hydroxylethyl-3β-O-[2,4-di-O-(α-l-rhamnopyranosyl)-β-d-glucopyranosyl]-lup-20 (29)-ene-28-oic acid], in data set [1], the EC50 was over 20 µM and the “activity against pSARS-CoV-2” value is given as “total loss of potency”.
With `C=CCOC(=O)[C@]12CC[C@@H](C(=C)C)[C@@H]1[C@H]1CC[C@@H]3[C@@]4(C)CC[C@H](O[C@@H]5O[C@H](CO)[C@@H](O[C@@H]6O[C@@H](C)[C@H](O)[C@@H](O)[C@H]6O)[C@H](O)[C@H]5O[C@@H]5O[C@@H](C)[C@H](O)[C@@H](O)[C@H]5O)C(C)(C)[C@@H]4CC[C@@]3(C)[C@]1(C)CC2` [BA-14, Allyl-3β-O-[2,4-di-O-(α-l-rhamnopyranosyl)-β-d-glucopyranosyl]-lup-20 (29)-ene-28-oic acid], in data set [1], the EC50 came out at 8.23 ± 0.55 µM, the SI amounted to 10.28 and the fold decreased potency stood at 2.6 fold. The compound further registered a CC50 in data set [2] of 84.62 ± 0.76 µM.
Consider `C=C(C)[C@@H]1CC[C@]2(C(=O)OCC3CC3)CC[C@]3(C)[C@H](CC[C@@H]4[C@@]5(C)CC[C@H](O[C@@H]6O[C@H](CO)[C@@H](O[C@@H]7O[C@@H](C)[C@H](O)[C@@H](O)[C@H]7O)[C@H](O)[C@H]6O[C@@H]6O[C@@H](C)[C@H](O)[C@@H](O)[C@H]6O)C(C)(C)[C@@H]5CC[C@]43C)[C@@H]12` [BA-15, Cyclopropylmethyl-3β-O-[2,4-di-O-(α-l-rhamnopyranosyl)-β-d-glucopyranosyl]-lup-20 (29)-ene-28-oic acid], for which, in data set [1], the midpoint of the response, the EC50, lay at 15.9 ± 0.82 µM; the SI is listed as 4.75; the fold decreased potency is given as 4.9 fold. The CC50 in data set [2] stood at 75.5 ± 1.63 µM.
As to `O=c1c2ccccc2[se]n1-c1ccccc1` [Ebselen], in data set [3], the “inhibition rate against 3CL (%)” value is 97.6% and 96.2%; the inhibition at 100 µM was 98.5%.

The values are drawn from paper PMC9729598 (Bioorganic Chemistry, 2022).
